Several values for one entry are separate records, joined by “and”; a condition that tells them apart may be missing. Equal entries are not always repeated. Where two headings read alike, the source gives them in different places.
Target: T1, MRGPRX4 + RAMP3 (Homo sapiens, UniProt Q96LA9)
T1 construct: expressed in transfected cells; host or cells: HEK293T
Assay: IP1 accumulation, MRGPRX4 coexpressed with RAMP3
Format: cell-based
Set-up: key to IP1 Basal / response to agonist, X4:ramp3.I:0.25 / response to agonist, X4:ramp3.I:0.5 / response to agonist, X4:ramp3.I:1: % IP1; unstimulated mock = 0%, fully stimulated MRGPRX4 = 100%
Conditions: for Emax: read-out: IP1 Emax; for IP1 accumulation (normalized): MRGPRX4+RAMP3 1pg 1:1, Supplementary Figure 5f, 5g
Protocol: HEK293T cells were transfected with 1 pg/cell of MRGPRX4 DNA, and the amount of DNA was kept constant at 2 pg/cell with pcDNA3.1(+) empty vector, unless otherwise specified. Twenty four hours after transfection, IP1 assay was performed as previously described ([51]). When applicable, cells were treated with 1 μM YM254890 (YM) or different concentrations of U73122 for 1 h prior to addition of agonist or buffer. After incubation for 2 h, HTRF reagents and IP1 calibration standards were added and incubated for 2 h in the dark at room temperature. Time-resolved fluorescence signals were read on the BioTek Synergy NEO-TRF Hybrid multi-mode reader (BioTek Instruments). All data were carried out in three independent experiments with three technical replicate each.
For RAMP DNA titration assay, HEK293T cells were cotransfected with a constant amount of 1 pg/cell of FLAG-MRGPRX4-GFP10-1D4 to which a serial dilution of 1, 0.75, 0.5, 0.25, or 0 pg/cell of each HA-RAMP-OLLAS was added. For a homogenous transfection of MRGPRX4, a master mix of MRGPRX4 DNA was made prior to addition of the RAMP DNA. […]
Data reduction, standard calibration, and transformation of HTRF data were performed as previously described ([51]). Normalized IP1 values were calculated relative to the unstimulated mock-transfected cells (set to 0%) and fully stimulated MRGPRX4 (alone if applicable) (set to 100%).

[1] = MRGPRX4 + RAMP3 0.25 pg (Fig. S3), normalized per agonist
[2] = MRGPRX4 + RAMP3 0.5 pg (Fig. S3), normalized per agonist
[3] = MRGPRX4 + RAMP3 1 pg (Fig. S3), normalized per agonist
[4] = MRGPRX4 + RAMP3 2 pg (Fig. S3), normalized per agonist
[5] = Tet-On MRGPRX4:RAMP3 Ratio 1:0.5 (Fig. S5F)
[6] = Tet-On MRGPRX4:RAMP3 Ratio 1:0.75 (Fig. S5F)
[7] = Tet-On MRGPRX4:RAMP3 Ratio 1:1 (Fig. S5F)

T1 sequence (Q96LA9 whole entry): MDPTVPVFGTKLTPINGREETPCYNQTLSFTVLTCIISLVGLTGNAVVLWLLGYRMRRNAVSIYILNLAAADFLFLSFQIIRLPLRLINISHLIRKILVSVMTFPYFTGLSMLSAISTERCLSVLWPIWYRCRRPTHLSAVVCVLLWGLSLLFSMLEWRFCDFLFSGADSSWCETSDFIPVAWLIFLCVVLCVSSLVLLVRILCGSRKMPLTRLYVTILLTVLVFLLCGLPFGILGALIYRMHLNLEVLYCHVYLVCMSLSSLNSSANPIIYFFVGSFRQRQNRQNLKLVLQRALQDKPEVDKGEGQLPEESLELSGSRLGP

With `CC(C)[C@H]1CC[C@H](C(=O)N[C@H](Cc2ccccc2)C(=O)O)CC1` [Nateglinide] the EC50 (Figure 4a top, DNA ratio MRGPRX4:RAMP3 1:0.75, individual replicates, read-out: potency (converted)) was 11.6 µM and 10 µM and 5.04 µM, the EC50 (Figure 4a top, DNA ratio MRGPRX4:RAMP3 1:1, individual replicates, read-out: potency (converted)) was 11 µM and 13.4 µM and 7.31 µM and the “response to agonist, X4:ramp3.I:0.25” value (Figure 4c-f, agonist 100µM, X4:ramp3 1:0.25, MRGPRX4 = 100) was 78.1524 and 81.0936. For the same compound, the “response to agonist, X4:ramp3.I:0.5” value (Figure 4c-f, agonist 100µM, X4:ramp3 1:0.5, MRGPRX4 = 100) was 74.9289 and 71.6542, the “response to agonist, X4:ramp3.I:1” value (Figure 4c-f, agonist 100µM, X4:ramp3 1:1, MRGPRX4 = 100) was 57.9146 and 58.6922 and the “IP1 Basal” value [1] was 18.35. It also gave an IP1 span (top minus basal of the concentration-response fit) [1] of 72%, an EC50 (MRGPRX4 + RAMP3 0.25 pg (Fig. S3), normalized per agonist, read-out: IP1 EC50) of 7.44 µM and an Emax [1] of 90.3%. For the same compound, the “IP1 Basal” value [2] was 17.78, the IP1 span (top minus basal of the concentration-response fit) [2] was 70.5% and the EC50 (MRGPRX4 + RAMP3 0.5 pg (Fig. S3), normalized per agonist, read-out: IP1 EC50) was 10.6 µM. The Emax [2] was 88.3%, the “IP1 Basal” value [3] was 13.65 and the IP1 span (top minus basal of the concentration-response fit) [3] was 76.8%. The EC50 (MRGPRX4 + RAMP3 1 pg (Fig. S3), normalized per agonist, read-out: IP1 EC50) was 12 µM, the Emax [3] was 90.4% and the “IP1 Basal” value [4] was 11.70. For the same compound, the IP1 span (top minus basal of the concentration-response fit) [4] was 79.7%, the EC50 (MRGPRX4 + RAMP3 2 pg (Fig. S3), normalized per agonist, read-out: IP1 EC50) was 14.5 µM and the Emax [4] was 91.3%. The “IP1 Basal” value [5] was 10.08, the IP1 span (top minus basal of the concentration-response fit) [5] was 83.3% and the EC50 (Tet-On MRGPRX4:RAMP3 Ratio 1:0.5 (Fig. S5F), read-out: IP1 EC50) was 7.17 µM. The Emax [5] was 93.4%, the “IP1 Basal” value [6] was 8.392 and the IP1 span (top minus basal of the concentration-response fit) [6] was 72.2%. For the same compound, the EC50 (Tet-On MRGPRX4:RAMP3 Ratio 1:0.75 (Fig. S5F), read-out: IP1 EC50) was 7.11 µM, the Emax [6] was 80.5% and the “IP1 Basal” value [7] was 9.885. It also gave an IP1 span (top minus basal of the concentration-response fit) [7] of 71.3%, an EC50 (Tet-On MRGPRX4:RAMP3 Ratio 1:1 (Fig. S5F), read-out: IP1 EC50) of 8.79 µM and an Emax [7] of 81.2%. The “IP1 accumulation (normalized)” value (log [nateglinide] (M) -4) was 57.5355 and 90.9736 and 62.9483, the “IP1 accumulation (normalized)” value (log [nateglinide] (M) -4.69897) was 50.3774 and 62.0079 and 49.4001 and the “IP1 accumulation (normalized)” value (log [nateglinide] (M) -5.39794) was 23.5136 and 36.2384 and 24.8216. The “IP1 accumulation (normalized)” value (log [nateglinide] (M) -6.09691) was 12.0843 and 16.5706 and 10.8044 and the “IP1 accumulation (normalized)” value (log [nateglinide] (M) -7.49485) was 6.988 and 11.3646 and 7.305.

— publication PMC10165273, “Itch receptor MRGPRX4 interacts with the receptor activity–modifying proteins” (The Journal of Biological Chemistry, 2023)
